How the values were obtained:
[1] = system: HPV16 E7 protein in CaSki cells; assay: HPV16 E7 protein level by western blotting in treated CaSki cells; assay type: cell-based; conditions: for E7 protein level after inhibitor treatment: 24-hr treatment
From the text: FIG. 1A. The representative immunoblots showing the level of HPV16 E7 constitutively expressed in CaSki cells upon treatment with inhibitors specific for USP7 (P5091, FT671, GNE-6776 and HBX 19818) and that targeting pan-USPs (PR-619) at the indicated concentrations. DMSO served as a vehicle control treatment. Cells were then collected and lysed, the levels of USP7 and HPV16 E7 proteins were detected using the respective specific antibodies. Beta-actin (β-actin) was included as a loading control. KDa: kilodalton. FIG. 1B. The bar chart showing the relative protein level of HPV16 E7 normalized by β-actin (n=3). Data are expressed as mean±standard error of the mean (SEM); Right panel showing the images at 100× magnification of the morphology of the CaSki cells treated with P5091, FT671, GNE-6776, HBX 19818 and PR-619 at concentrations indicated. FIG. 1C. The immunoblots showing the levels of USP7 and HPV16 E7 proteins in CaSki and C-33A (an HPV-null cervical cancer cell line) upon downregulation of USP7 using siRNA targeting specifically against human USP7. FIG. 1D. The immunoblots showing the protein level of HPV16 E7 treated with different concentrations of HBX 19818. CaSki cells were treated with different concentrations of HBX 19818 or DMSO as indicated. Total cell lysates were subjected to western blotting using USP7, β-actin and HPV16 E7 specific antibodies. FIG. 1E. The bar chart showing the relative protein level of HPV16 E7 treated with different concentrations of HBX 19818 normalized by β-actin (n=3). Data are expressed as mean±SEM. FIG. 1F. The curve chart showing the level of E7 protein with increasing concentrations of HBX 19818 treatment. The percentage of HPV16 E7 protein level was analyzed using the non-linear regression function in GraphPad™ Prism 9. Error bars show standard errors of the mean (SEM). *: P<0.05; […]***: P<0.001.
Firstly, we screened four USP7-specific inhibitors (P5091, FT671. GNE-6776, and HBX 19818) and 1 pan-USPs inhibitor (PR-619) to characterize their inhibitory effect on E7 expression in HPV-containing cancer cells. We treated CaSki (HPV16-positive) cancer cells with P5091 at 5 μM and 10 μM; FT671, GNE-6776 and PR-619 at 3 μM and 15 μM; as well as HBX 19818 at 3 μM and 6 μM. These concentrations were chosen based on the reported IC50 values. After 24-hr treatment, the cells were collected, and total cell lysates were resolved by SDS-PAGE. The expression levels of USP7 and E7 were detected using respective specific antibodies.

[2] = system: HPV16 E7 protein in CaSki cells; assay: Cycloheximide chase assay of E7 stability in CaSki cells; assay type: cell-based; conditions: 3 μM for 24 hrs, then 10 μg/ml cycloheximide, E7 alone 40.32±0.94 mins
Protocol: (§1) FIGS. 2A-2C HBX 19818 treatment destabilized the steady-state level of HPV16 E7. FIG. 2A. Immunoblots showing the protein levels of HPV16 E7, endogenous ubiquitin and USP7. CaSki cells were either transfected with expression plasmids pcDNA 3.1 (left panel) or pcDNA:Flag-USP7, treated with 3 μM of HBX 19818. After 24 hr, the cells were treated with 10 μg/ml cycloheximide at different durations, as indicated. As a control, the cells were also treated with 5 μg/ml MG132 (a proteasome inhibitor) for 2 hrs prior to adding cycloheximide. The cells were harvested and subjected to western blotting using the respective specific antibodies as indicated. Beta-actin (β-actin) was included as a loading control. CHX: cycloheximide; KDa: kilodalton. FIG. 2B. The curves showing the level of HPV16 E7 protein when co-overexpressed with USP7 or treated with HBX 19818 at different time points. The stability of HPV16 E7 was analyzed using the one-phase exponential decay function in GraphPad™ Prism 9. Error bars indicate standard error of the mean (SEM). FIG. 2C. […] Data are expressed as mean±SEM. ns: not significant, P>0.05; *: P<0.05.
(§2) We next wanted to assess whether HBX 19818 can reverse USP7-mediated deubiquitination of E7. […] The expression levels of Flag-USP7, endogenous ubiquitin, and E7 were detected using anti-Flag-, ubiquitin- and HPV16 E7-specific antibodies, respectively (FIG. 2A). […]

[3] = system: ubiquitin in CaSki cells; assay: Endogenous ubiquitin level by western blotting in CaSki cells; assay type: cell-based, human; conditions: 3 μM, independent of cycloheximide
Protocol: as §1, §2

[4] = system: CaSki (HPV16-positive) cancer cells; assay: Cell proliferation, cell counting kit-8 (CCK8) assay, CaSki; assay type: cell-based, human; conditions: DMSO 10.38±0.90 folds
Protocol: (§3) FIGS. 3A-3B HBX 19818 inhibited proliferation of CaSki cells, but not SCC25 cells. The growth curves showing the cell proliferation of (FIG. 3A) CaSki (HPV16-positive) and (FIG. 3B) SCC25 (HPV-negative) cancer cells in the presence or absence of HBX 19818. Cell proliferation of CaSki was assessed using cell counting kit 8 (CCK8) assay. Cells were seeded into 96-well plates and incubated with either DMSO (vehicle control) or HBX 19818 at 3 μM or 6 μM for different days as indicated. Optical density (OD) value at 450 nm indicating relative proliferation was measured daily (n=3). Error bars indicate standard error of the mean (SEM).
(§4) We assessed the ability of CaSki (HPV16 positive cells) and SCC25, which are HPV-null cells, to proliferate using a cell counting kit-8 (CCK8) assay. This assay measures the ability of viable cells to metabolize soluble tetrazolium salt (WST-8) to orange formazan, in which the latter can be measured at optical density (OD) of […]. A day prior to drug treatment, CaSki and SCC25 were seeded into each well of 96-well plates at a density of 2000 cells/well in 100 μL of DMEM containing 10% FBS. The cells were treated with either DMSO (vehicle control) or HBX 19818 at 3 μM and 6 μM for 24, 72, and 96 hrs. […] The OD value of the medium at 450 nm was measured using LEDETECT 96 microplate reader (Labexim Products).

[5] = system: SCC25 (HPV-negative) cancer cells; assay: Cell proliferation, cell counting kit-8 (CCK8) assay, SCC25; assay type: cell-based, human; conditions: DMSO 10.45±0.88 folds
Protocol: as §3, §4

[6] = system: CaSki (HPV16-positive) cancer cells; assay: Soft agar colony formation assay, CaSki; assay type: cell-based, human; conditions: 14 days, DMSO 88.17±5.92
Protocol: (§5) FIGS. 4A-4D HBX 19818 inhibited transformation of CaSki cells, but not SCC25 cells. The representative images showing the whole-well view and morphology of colonies formed by (FIG. 4A) CaSki (HPV16-positive) and (FIG. 4C) SCC25 (HPV-negative) cancer cells. Cells were seeded into 0.35% agarose gel containing DMEM with 10% FBS, and grew for 14 days. The agarose gel was stained with crystal violet, and images were taken using a digital camera. The colony morphology was observed using an optical microscope at 100× magnification. The bar chart comparing the number of colonies of (FIG. 4B) CaSki or (FIG. 4D) SCC25 cells with DMSO or HBX 19818 at concentrations indicated (n=3). Data indicated are mean±standard error of the mean (SEM). *: P<0.05.
(§6) We performed a soft agar colony formation assay to assess the ability of CaSki and SCC25 to grow in an anchorage-independent manner, in the presence or absence of HBX 19818 treatment. CaSki and SCC25 cells were seeded into 0.7% soft agar containing 2×DMEM and 20% FBS. The cells were incubated at 37° C. for 14 days. After a 2-week incubation, the agarose gel was stained with crystal violet. Colonies formed were counted and measured. We observed that CaSki cells treated with DMSO formed a dramatically higher number of colonies (88.17±5.92) than those treated with 6 μM of HBX 19818 (62.67±2.03) (FIGS. 4A and 4B). […]

[7] = system: SCC25 (HPV-negative) cancer cells; assay: Soft agar colony formation assay, SCC25; assay type: cell-based, human; conditions: SCC25, HBX 19818 versus DMSO, 14 days
Protocol: as §5, §6

[8] = system: CaSki (HPV16-positive) cancer cells; assay: Wound-healing (migration) assay, CaSki; assay type: cell-based, human; conditions: 24 hrs, DMSO 98.46%±0.36%
Protocol: (§7) The representative images showing the cell migration of (FIG. 5A) CaSki (HPV16-positive) and (FIG. 5C) SCC25 (HPV-negative) cancer cells after scratching. Cells were seeded into 12-well plate and scratched when reached 100% confluence, followed by incubation with DMSO (vehicle control) or HBX 19818 at concentrations indicated for 24 hours. Cell migration was observed and recorded using a time-lapse microscope every 6 hours. The bar chart comparing the relative coverage areas of (FIG. 5B) CaSki and (FIG. 5D) SCC25 with DMSO or HBX 19818 (n=3). Data indicated are mean±SEM. *: P<0.05; **: P<0.01.
(§8) We performed a wound-healing assay to ascertain the ability of CaSki and SCC25 cells to migrate under HBX 19818 treatment. Cells were seeded into a 12-well plate and cultured to reach 100% confluency. Cells were then scratched to make artificial wounds on the monolayer of cells and incubated with either DMSO or HBX 19818 at 3 μM or 6 μM. Cells migration was monitored using time-lapse microscopy where images were taken 6-hourly for a duration of 24 hrs.

[9] = system: SCC25 (HPV-negative) cancer cells; assay: Wound-healing (migration) assay, SCC25; assay type: cell-based, human; conditions: SCC25, HBX 19818 versus DMSO, 24 hrs
Protocol: as §7, §8

[10] = system: CaSki (HPV-positive) cancer cells; assay: Matrigel invasion assay, CaSki; assay type: cell-based, human; conditions: 24-hr, DMSO 100%
Protocol: (§9) FIGS. 6A-6D. […] The representative images showing the cell invasion of (FIG. 6A) CaSki (HPV-positive) and (FIG. 6C) SCC25 (HPV-negative) cancer cells in the presence of DMSO (vehicle control) or HBX 19818 at concentrations indicated. Cells were seeded into the invasion chamber with plain medium, followed by treatment with either DMSO or HBX 19818 for 24 hours. Cell invasion was observed and recorded using an optical microscope at 40× magnification. The bar graph comparing the relative cell invasion ability of (FIG. 6B) CaSki and (FIG. 6D) SCC25 with DMSO or HBX 19818 (n=3). Data indicated are mean±standard error of the mean (SEM). **: P<0.01; ***: P<0.001.
(§10) We next examined the ability of CaSki and SCC25 cells to invade through Matrigel, which mimics the basement membrane. Approximately 5×10^4 of CaSki and SCC25 cells were seeded into the inserts containing serum-free DMEM medium with either DMSO or HBX 19818. We included MCF7, a non-invasive breast cancer cell line as a negative control. DMEM supplemented with 20% FBS was added into the bottom chamber to attract cells to migrate from the upper to the lower surface of the inserts. After 24-hr incubation at 37° C., the non-invasive cells on the upper surface were removed using cotton swabs. Cells on the lower surface were fixed and stained using hematoxylin. […]

[11] = system: SCC25 (HPV-negative) cancer cells; assay: Matrigel invasion assay, SCC25; assay type: cell-based, human; conditions: SCC25, HBX 19818 versus DMSO, 24-hr
Protocol: as §9, §10

Molecule	E7 protein level after inhibitor treatment ([1]; 15 μM)	Level of E7 with increasing concentration ([1]; 1.5 μM, 3.0 μM, 6.0 μM and 12.0 μM)	E7 protein level after inhibitor treatment ([1]; 3 μM and 6 μM, triplicate experiments)	IC50 ([1]; non-linear regression, read-out: Concentration sufficient to halve the level of E7 protein) [µM]	Half-life of E7 [2] [min]	Level of ubiquitin [3]	Cell proliferation ability (relative OD 450 nm) ([4]; 3 μM) [folds]	Cell proliferation ability (relative OD 450 nm) ([4]; 6 μM) [folds]	Cell proliferation ability (relative OD 450 nm) ([5]; SCC25, 3 μM) [folds]	Cell proliferation ability (relative OD 450 nm) ([5]; SCC25, 6 μM) [folds]	Number of colonies ([6]; 3 μM)	Number of colonies ([6]; 6 μM)	Number of colonies [7]	Cell migration ability (relative coverage area) ([8]; 3 μM)	Cell migration ability (relative coverage area) ([8]; 6 μM)	Cell migration ability [9]	Relative invasive ability ([10]; 3 μM)	Relative invasive ability ([10]; 6 μM)	Invasive ability [11]
CCc1c(-c2ccc(C(=O)NC)nc2)cnc(N)c1-c1ccc(O)cc1 [GNE-6776]	decreased the E7 protein level drastically																		
HBX 19818		decreased at a dose-dependent manner	dramatic reduction of E7 protein level	2.8	27.45 ± 0.88	increased level of ubiquitin	7.82±1.14	4.29±0.31	10.12±0.94	7.29±1.24	74.67±7.99	62.67±2.03	no difference in the number of colonies	85.58%±4.39%	53.24%±8.96%	no differences were observed	30%±2.97%	13.85%±1.21%	similar

— patent US20240009182A1, “REPURPOSED COMPOUND AS THERAPEUTIC FOR HPV-ASSOCIATED CANCERS” (The Chinese University of Hong Kong, priority 2022, published 2024)
